Experimental data published in ChEMBL document CHEMBL5126643, “Design and Characterization of Novel Small Molecule Activators of Excitatory Amino Acid Transporter 2” (ACS Med Chem Lett, 2022).

Legend:
[1] = target: Excitatory amino acid transporter 2 (Homo sapiens, UniProt P43004); test: Activation of human EAAT2 overexpressed in MDCK cells assessed as glutamate reuptake incubated for 5 mins by LCMS assay; format: cell-based
[2] = Lipophilicity, log P of the compound; format: physicochemical; settings: octanol/water
[3] = Cmax in Wistar rat plasma at 10 mg/kg, ip measured up to 24 hrs by LC-MS/MS analysis; format: ADME, organism-based; design: dose 10 mg/kg, time < 24 hrs, route ip
[4] = Tmax in Wistar rat brain at 10 mg/kg, ip measured up to 24 hrs by LC-MS/MS analysis; format: ADME, organism-based
[5] = Oral bioavailability in Wistar rat plasma at 10 mg/kg measured up to 24 hrs by LC-MS/MS analysis; format: ADME, organism-based
[6] = Half life in Wistar rat brain at 5 mg/kg, iv measured up to 24 hrs by LC-MS/MS analysis; format: ADME, organism-based
[7] = Half life in Wistar rat plasma at 10 mg/kg, ip measured up to 24 hrs by LC-MS/MS analysis; format: ADME, organism-based
[8] = AUC in Wistar rat brain at 5 mg/kg, iv measured up to 24 hrs by LC-MS/MS analysis; format: ADME, organism-based; design: time < 24 hrs, dose 5 mg/kg, route iv; settings: in vivo
[9] = AUC in Wistar rat plasma at 5 mg/kg, iv measured up to 24 hrs by LC-MS/MS analysis; format: ADME, organism-based; design: dose 5 mg/kg, time < 24 hrs, route iv; settings: in vivo
[10] = Cmax in Wistar rat plasma at 5 mg/kg, iv measured up to 24 hrs by LC-MS/MS analysis; format: ADME, organism-based; design: dose 5 mg/kg, time < 24 hrs, route iv
[11] = Cmax in Wistar rat brain at 5 mg/kg, iv measured up to 24 hrs by LC-MS/MS analysis; format: ADME, organism-based; design: dose 5 mg/kg, time < 24 hrs, route iv
[12] = Tmax in Wistar rat plasma at 10 mg/kg, po measured up to 24 hrs by LC-MS/MS analysis; format: ADME, organism-based
[13] = AUC in Wistar rat brain at 10 mg/kg, po measured up to 24 hrs by LC-MS/MS analysis; format: ADME, organism-based; design: time < 24 hrs, dose 10 mg/kg, route po; settings: in vivo
[14] = Tmax in Wistar rat brain at 10 mg/kg, po measured up to 24 hrs by LC-MS/MS analysis; format: ADME, organism-based
[15] = AUC in Wistar rat plasma at 10 mg/kg, po measured up to 24 hrs by LC-MS/MS analysis; format: ADME, organism-based; design: time < 24 hrs, dose 10 mg/kg, route po; settings: in vivo
[16] = Half life in Wistar rat plasma at 10 mg/kg, po measured up to 24 hrs by LC-MS/MS analysis; format: ADME, organism-based
[17] = Tmax in Wistar rat brain at 5 mg/kg, iv measured up to 24 hrs by LC-MS/MS analysis; format: ADME, organism-based
[18] = Cmax in Wistar rat brain at 10 mg/kg, po measured up to 24 hrs by LC-MS/MS analysis; format: ADME, organism-based; design: dose 10 mg/kg, time < 24 hrs, route po
[19] = Tmax in Wistar rat plasma at 5 mg/kg, iv measured up to 24 hrs by LC-MS/MS analysis; format: ADME, organism-based
[20] = Cmax in Wistar rat plasma at 10 mg/kg, po measured up to 24 hrs by LC-MS/MS analysis; format: ADME, organism-based; design: dose 10 mg/kg, time < 24 hrs, route po
[21] = Bioavailability in Wistar rat plasma at 10 mg/kg, ip measured up to 24 hrs by LC-MS/MS analysis; format: ADME, organism-based
[22] = Half life in Wistar rat plasma at 5 mg/kg, iv measured up to 24 hrs by LC-MS/MS analysis; format: ADME, organism-based
[23] = Tmax in Wistar rat plasma at 10 mg/kg, ip measured up to 24 hrs by LC-MS/MS analysis; format: ADME, organism-based
[24] = AUC in Wistar rat brain at 10 mg/kg, ip measured up to 24 hrs by LC-MS/MS analysis; format: ADME, organism-based; design: dose 10 mg/kg, time < 24 hrs, route ip; settings: in vivo
[25] = Cmax in Wistar rat brain at 10 mg/kg, ip measured up to 24 hrs by LC-MS/MS analysis; format: ADME, organism-based; design: time < 24 hrs, dose 10 mg/kg, route ip
[26] = AUC in Wistar rat plasma at 10 mg/kg, ip measured up to 24 hrs by LC-MS/MS analysis; format: ADME, organism-based; design: time < 24 hrs, dose 10 mg/kg, route ip; settings: in vivo
[27] = Half life in Wistar rat brain at 10 mg/kg, ip measured up to 24 hrs by LC-MS/MS analysis; format: ADME, organism-based
[28] = Cmax in CD-1 mouse plasma at 10 mg/kg, ip measured up to 8 hrs by LC-MS/MS analysis; format: ADME, organism-based; design: dose 10 mg/kg, time < 8 hrs, route ip
[29] = AUC in CD-1 mouse plasma at 10 mg/kg, ip measured up to 8 hrs by LC-MS/MS analysis; format: ADME, organism-based; design: time < 8 hrs, dose 10 mg/kg, route ip; settings: in vivo
[30] = Tmax in CD-1 mouse plasma at 10 mg/kg, ip measured up to 8 hrs by LC-MS/MS analysis; format: ADME, organism-based
[31] = Primary phase half life in CD-1 mouse brain at 10 mg/kg, ip measured up to 8 hrs by LC-MS/MS analysis; format: ADME, organism-based; settings: read-out: alphat1/2 (converted)
[32] = Cmax in CD-1 mouse brain at 10 mg/kg, ip measured up to 8 hrs by LC-MS/MS analysis; format: ADME, organism-based; design: dose 10 mg/kg, time < 8 hrs, route ip
[33] = Primary phase half life in CD-1 mouse plasma at 10 mg/kg, ip measured up to 8 hrs by LC-MS/MS analysis; format: ADME, organism-based; settings: read-out: alphat1/2 (converted)
[34] = Tmax in CD-1 mouse brain at 10 mg/kg, ip measured up to 8 hrs by LC-MS/MS analysis; format: ADME, organism-based
[35] = AUC in CD-1 mouse brain at 10 mg/kg, ip measured up to 8 hrs by LC-MS/MS analysis; format: ADME, organism-based; design: time < 8 hrs, dose 10 mg/kg, route ip; settings: in vivo
[36] = Half life in Wistar rat brain at 10 mg/kg, po measured up to 24 hrs by LC-MS/MS analysis; format: ADME, organism-based

Chain of Excitatory amino acid transporter 2 (P43004 whole entry): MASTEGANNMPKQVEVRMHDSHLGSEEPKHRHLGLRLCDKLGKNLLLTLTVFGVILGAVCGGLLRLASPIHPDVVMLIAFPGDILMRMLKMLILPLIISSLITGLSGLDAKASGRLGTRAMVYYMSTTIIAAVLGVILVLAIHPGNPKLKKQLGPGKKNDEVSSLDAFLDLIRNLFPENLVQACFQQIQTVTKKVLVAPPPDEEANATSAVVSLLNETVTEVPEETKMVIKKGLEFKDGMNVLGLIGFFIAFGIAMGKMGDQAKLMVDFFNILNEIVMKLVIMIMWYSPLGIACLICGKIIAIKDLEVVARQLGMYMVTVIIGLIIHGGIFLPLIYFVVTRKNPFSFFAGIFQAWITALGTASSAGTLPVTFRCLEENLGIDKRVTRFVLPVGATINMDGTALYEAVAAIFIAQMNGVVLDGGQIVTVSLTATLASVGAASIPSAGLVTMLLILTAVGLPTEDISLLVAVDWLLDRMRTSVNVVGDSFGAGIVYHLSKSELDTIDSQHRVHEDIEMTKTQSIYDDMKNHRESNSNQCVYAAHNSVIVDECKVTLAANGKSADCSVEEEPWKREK

| SMILES | EC50 [1] [nM] | logP [2] | Cmax [3] [ng/g] | Tmax [4] [h] | bioavailability [5] [%] | half-life [6] [h] | half-life [7] [h] | AUC [8] [ng·h/g] | AUC [9] [ng·h/g] | Cmax [10] [ng/g] | Cmax [11] [ng/g] | Tmax [12] [h] | AUC [13] [ng·h/g] | Tmax [14] [h] | AUC [15] [ng·h/g] | half-life [16] [h] | Tmax [17] [h] | Cmax [18] [ng/g] | Tmax [19] [h] | Cmax [20] [ng/g] | other results |
| --- | --- | --- | --- | --- | --- | --- | --- | --- | --- | --- | --- | --- | --- | --- | --- | --- | --- | --- | --- | --- | --- |
| Cc1ccccc1CSc1ccc(-c2ccccn2)nn1 | 1830 |  |  |  |  |  |  |  |  |  |  |  |  |  |  |  |  |  |  |  |  |
| COc1ccc2[nH]c(=O)c(C(c3nnnn3CCc3ccccc3)N3CCN(C4CCCCC4)CC3)cc2c1 (stereo not drawn) |  | > 6 |  |  |  |  |  |  |  |  |  |  |  |  |  |  |  |  |  |  |  |
| COc1ccc(NC(=O)C(=O)N2CCN(c3ccccc3)CC2)cc1 |  |  | 450 | 0.5 | 17.5 | 1.52 | 6.22 | 443.23 | 919.43 | 567 | 371 | 3.25 | 183 | 1.38 | 321.93 | 5.34 | 0.5 | 25 | 0.5 | 42.9 | bioavailability [21]: 58.4%; half-life [22]: 6.08 h; Tmax [23]: 0.63 h; AUC [24]: 429.85 ng·h/g; Cmax [25]: 204 ng/g; AUC [26]: 1073.21 ng·h/g; half-life [27]: 2.26 h |
| COc1ccc2[nH]c(=O)c(C(c3nnnn3CCc3ccccc3)N3CCN(c4cccc(C(F)(F)F)c4)CC3)cc2c1 (stereo not drawn) |  | > 6 |  |  |  |  |  |  |  |  |  |  |  |  |  |  |  |  |  |  | Cmax [28]: 717 ng/mL; AUC [29]: 1339 ng·h/g; Tmax [30]: 0.5 h; half-life [31]: 3.5 h; Cmax [32]: 30 ng/mL; half-life [33]: 3 h; Tmax [34]: 0.5 h; AUC [35]: 86 ng·h/g |
| COc1ccc(NC(=O)C(=O)NCC(c2ccccc2)N2CCN(C)CC2)cc1 (stereo not drawn) |  |  | 262 | 0.5 | 80.3 | 1.03 | 1.02 | 1959.7 | 315.635 | 307 | 1220 | 0.875 | 2816.8 | 0.88 | 507.2 | 4.76 | 0.5 | 1170 | 0.5 | 204 | half-life [36]: 1.81 h; bioavailability [21]: 85%; half-life [22]: 0.651 h; Tmax [23]: 0.5 h; AUC [24]: 4414.35 ng·h/g; Cmax [25]: 2460 ng/g; AUC [26]: 536.768 ng·h/g; half-life [27]: 1.62 h |
| CO/N=C(\C(=O)N[C@@H]1C(=O)N2C(C(=O)O)=C(CSc3nc(=O)c(=O)[nH]n3C)CS[C@H]12)c1csc(N)n1 [CEFTRIAXONE] | > 10000 |  |  |  |  |  |  |  |  |  |  |  |  |  |  |  |  |  |  |  |  |
